{"source": "patent US20230015823A1", "about": "“METHODS OF ADMINISTERING VOXELOTOR” (Global Blood Therapeutics, Inc., priority 2019, published 2023)", "experiment": "Phase 1 study of a single oral dose of voxelotor in subjects with hepatic impairment: whole blood and plasma PK", "type": "in vivo, human", "settings": "for half-life / Tmax / AUC(0-t) / AUC(0-inf) / Cmax / Vd/F: human, po; for half-life: read-out: t1/2, mean (converted); for Tmax: read-out: tmax, median (converted); for AUC(0-inf): read-out: AUCinf, GM (converted); for Cmax: read-out: Cmax, GM (converted); for Vd/F: read-out: Vz/F, GM (converted)", "protocol": "A Phase 1, open-label study was performed to characterize pharmacokinetics (PK) and safety of a single oral dose of voxelotor in subjects with hepatic impairment. The study was to assess the effects of mild, moderate, or severe hepatic impairment on the PK of a single oral dose of voxelotor, to evaluate the safety and tolerability of a single oral dose of voxelotor in subjects with mild, moderate, or severe hepatic impairment, as well as to establish potential dose adjustment guidance based upon the degree of hepatic insufficiency. […] This study was designed to assess the effects of mild, moderate, or severe hepatic impairment on the PK of a single oral dose of voxelotor. Routine safety assessments (AE monitoring, vital signs, physical examinations, clinical laboratory tests, and ECGs) were performed. Eligible subjects received a single oral dose of voxelotor 1500 mg (5×300-mg capsules) on Day 1 (for normal hepatic function, mild and moderate hepatic impairment). […] No food was allowed for at least 4 hours postdose. No water or any type of liquid was allowed for 1 hour before dosing through 1-hour postdose with the exception of water consumed for dosing. Adverse events and concomitant medication use were monitored throughout the study. Safety assessments, including physical examinations, vital signs assessments, 12-lead ECGs, and clinical laboratory tests, were performed. Whole blood and plasma concentrations of voxelotor were determined using validated assays. […] Louis, Mo.) and actual sampling times. The following PK parameters were determined. To assess the effect of hepatic impairment on the PK of voxelotor, a linear mixed-effect model was fitted to the log-transformed values of whole blood and plasma Cmax, AUCt, and AUCinf. The model included hepatic impairment group as a fixed effect and age and weight as covariates. Point estimates and 90% CIs for hepatic function group differences (mild, moderate, and severe hepatically-impaired subjects [test] versus the normal hepatic function subjects [control]) on the log scale were exponentiated to obtain estimates for GM ratios on the original scale. Voxelotor whole blood and plasma concentrations were measured using a validated liquid chromatography-mass spectrometry method. The lower limit of assay quantitation for voxelotor was 10.0 ng/mL for whole blood and 5.00 ng/mL in plasma.", "key": {"[1]": {"settings": "whole blood, 600 mg, whole blood, severe hepatic impairment, 600 mg single oral dose"}, "[2]": {"settings": "whole blood, 1500 mg, whole blood, mild hepatic impairment, 1500 mg single oral dose"}, "[3]": {"settings": "whole blood, 1500 mg, whole blood, moderate hepatic impairment, 1500 mg single oral dose"}, "[4]": {"settings": "whole blood, 1500 mg, whole blood, normal hepatic function, 1500 mg single oral dose"}, "[5]": {"settings": "plasma, Mild (Test) vs Normal (Ref)"}, "[6]": {"settings": "plasma, Moderate (Test) vs Normal (Ref)"}, "[7]": {"settings": "plasma, Severe (Test, adjusted for dose) vs Normal (Ref)"}, "[8]": {"settings": "severe hepatic impairment, Cmax adjusted for dose"}, "[9]": {"settings": "whole blood, Mild (Test) vs Normal (Ref)"}, "[10]": {"settings": "whole blood, Moderate (Test) vs Normal (Ref)"}, "[11]": {"settings": "whole blood, Severe (Test, adjusted for dose) vs Normal (Ref)"}}, "note": "Like-named read-outs stand apart in the source and are kept apart here."}
{"smiles": "CC(C)n1nccc1-c1ncccc1COc1cccc(O)c1C=O", "note": "[voxelotor, 2-hydroxy-6-((2-(1-isopropyl-1H-pyrazol-5-yl)pyridin-3-yl)methoxy)benzaldehyde]", "values": [{"measurement": "half-life", "setting": "[1]", "result": 111, "unit": "h"}, {"measurement": "Tmax", "setting": "[1]", "result": 24, "unit": "h"}, {"measurement": "AUC(0-t)", "setting": "whole blood, 1500 mg, whole blood, mild hepatic impairment, 1500 mg single oral dose, read-out: AUC0-96, GM (converted)", "result": 5160, "unit": "µg·h/mL"}, {"measurement": "AUC(0-inf)", "setting": "[2]", "result": 8230, "unit": "µg·h/mL"}, {"measurement": "AUC(0-t)", "setting": "whole blood, 1500 mg, whole blood, mild hepatic impairment, 1500 mg single oral dose, read-out: AUCt, GM (converted)", "result": 8190, "unit": "µg·h/mL"}, {"measurement": "Cmax", "setting": "[2]", "result": 73.6, "unit": "µg/mL"}, {"measurement": "Vd/F", "setting": "[2]", "result": 15.8, "unit": "L"}, {"measurement": "half-life", "setting": "[2]", "result": 60.1, "unit": "h"}, {"measurement": "Tmax", "setting": "[2]", "result": 24, "unit": "h"}, {"measurement": "AUC(0-t)", "setting": "whole blood, 1500 mg, whole blood, moderate hepatic impairment, 1500 mg single oral dose, read-out: AUC0-96, GM (converted)", "result": 4660, "unit": "µg·h/mL"}, {"measurement": "AUC(0-inf)", "setting": "[3]", "result": 8360, "unit": "µg·h/mL"}, {"measurement": "AUC(0-t)", "setting": "whole blood, 1500 mg, whole blood, moderate hepatic impairment, 1500 mg single oral dose, read-out: AUCt, GM (converted)", "result": 8320, "unit": "µg·h/mL"}, {"measurement": "Cmax", "setting": "[3]", "result": 63.8, "unit": "µg/mL"}, {"measurement": "Vd/F", "setting": "[3]", "result": 20.6, "unit": "L"}, {"measurement": "half-life", "setting": "[3]", "result": 79.5, "unit": "h"}, {"measurement": "Tmax", "setting": "[3]", "result": 24, "unit": "h"}, {"measurement": "AUC(0-t)", "setting": "whole blood, 1500 mg, whole blood, normal hepatic function, 1500 mg single oral dose, read-out: AUC0-96, GM (converted)", "result": 4270, "unit": "µg·h/mL"}, {"measurement": "AUC(0-inf)", "setting": "[4]", "result": 6980, "unit": "µg·h/mL"}, {"measurement": "AUC(0-t)", "setting": "whole blood, 1500 mg, whole blood, normal hepatic function, 1500 mg single oral dose, read-out: AUCt, GM (converted)", "result": 6950, "unit": "µg·h/mL"}, {"measurement": "Cmax", "setting": "[4]", "result": 60.9, "unit": "µg/mL"}, {"measurement": "Vd/F", "setting": "[4]", "result": 19.6, "unit": "L"}, {"measurement": "Tmax", "setting": "[4]", "result": 24, "unit": "h"}, {"measurement": "plasma Cmax, higher than normal hepatic function", "setting": "mild hepatic impairment", "result": 18, "unit": "%"}, {"measurement": "whole blood Cmax, higher than normal hepatic function", "setting": "mild hepatic impairment", "result": 19, "unit": "%"}, {"measurement": "AUC in whole blood higher compared to normal hepatic function", "setting": "mild hepatic impairment (Child Pugh A)", "result": 14, "unit": "%"}, {"measurement": "plasma Cmax, higher than normal hepatic function", "setting": "moderate hepatic impairment", "result": 51, "unit": "%"}, {"measurement": "whole blood Cmax, higher than normal hepatic function", "setting": "moderate hepatic impairment", "result": 6, "unit": "%"}, {"measurement": "AUC in whole blood higher compared to normal hepatic function", "setting": "moderate hepatic impairment (Child Pugh B)", "result": 15, "unit": "%"}, {"measurement": "AUCinf, Ratio of Geometric LS Mean (Test to Reference)", "setting": "[5]", "result": 1.093}, {"measurement": "AUCt, Ratio of Geometric LS Mean (Test to Reference)", "setting": "[5]", "result": 1.089}, {"measurement": "Cmax, Ratio of Geometric LS Mean (Test to Reference)", "setting": "[5]", "result": 1.177}, {"measurement": "AUCinf, Ratio of Geometric LS Mean (Test to Reference)", "setting": "[6]", "result": 1.180}, {"measurement": "AUCt, Ratio of Geometric LS Mean (Test to Reference)", "setting": "[6]", "result": 1.207}, {"measurement": "Cmax, Ratio of Geometric LS Mean (Test to Reference)", "setting": "[6]", "result": 1.510}, {"measurement": "AUCinf, Ratio of Geometric LS Mean (Test to Reference)", "setting": "[7]", "result": 1.932}, {"measurement": "AUCt, Ratio of Geometric LS Mean (Test to Reference)", "setting": "[7]", "result": 1.907}, {"measurement": "Cmax, Ratio of Geometric LS Mean (Test to Reference)", "setting": "[7]", "result": 1.445}, {"measurement": "CL/F, GM", "setting": "plasma, mild hepatic impairment, 1500 mg single oral dose", "result": 76.69, "unit": "L/h"}, {"measurement": "CL/F, GM", "setting": "plasma, moderate hepatic impairment, 1500 mg single oral dose", "result": 56.14, "unit": "L/h"}, {"measurement": "CL/F, GM", "setting": "plasma, normal hepatic function, 1500 mg single oral dose", "result": 77.50, "unit": "L/h"}, {"measurement": "CL/F, GM", "setting": "plasma, severe hepatic impairment, 600 mg single oral dose", "result": 73.81, "unit": "L/h"}, {"measurement": "AUC in whole blood higher compared to normal hepatic function", "setting": "severe hepatic impairment (Child Pugh C)", "result": 90, "unit": "%"}, {"measurement": "plasma Cmax, higher than normal hepatic function", "setting": "[8]", "result": 45, "unit": "%"}, {"measurement": "whole blood Cmax, higher than normal hepatic function", "setting": "[8]", "result": 39, "unit": "%"}, {"measurement": "AUCinf, Ratio of Geometric LS Mean (Test to Reference)", "setting": "[9]", "result": 1.141}, {"measurement": "AUCt, Ratio of Geometric LS Mean (Test to Reference)", "setting": "[9]", "result": 1.140}, {"measurement": "Cmax, Ratio of Geometric LS Mean (Test to Reference)", "setting": "[9]", "result": 1.187}, {"measurement": "AUCinf, Ratio of Geometric LS Mean (Test to Reference)", "setting": "[10]", "result": 1.151}, {"measurement": "AUCt, Ratio of Geometric LS Mean (Test to Reference)", "setting": "[10]", "result": 1.149}, {"measurement": "Cmax, Ratio of Geometric LS Mean (Test to Reference)", "setting": "[10]", "result": 1.056}, {"measurement": "AUCinf, Ratio of Geometric LS Mean (Test to Reference)", "setting": "[11]", "result": 1.902}, {"measurement": "AUCt, Ratio of Geometric LS Mean (Test to Reference)", "setting": "[11]", "result": 1.867}, {"measurement": "Cmax, Ratio of Geometric LS Mean (Test to Reference)", "setting": "[11]", "result": 1.391}, {"measurement": "CL/F, GM", "setting": "whole blood, mild hepatic impairment, 1500 mg single oral dose", "result": 70.182, "unit": "L/h"}, {"measurement": "CL/F, GM", "setting": "whole blood, moderate hepatic impairment, 1500 mg single oral dose", "result": 60.179, "unit": "L/h"}, {"measurement": "CL/F, GM", "setting": "whole blood, normal hepatic function, 1500 mg single oral dose", "result": 70.215, "unit": "L/h"}, {"measurement": "CL/F, GM", "setting": "whole blood, severe hepatic impairment, 600 mg single oral dose", "result": 70.110, "unit": "L/h"}]}
